Data from US20130137856A1, “PROTEIN BINDING DOMAINS STABILIZING FUNCTIONAL CONFORMATIONAL STATES OF GPCRS AND USES THEREOF” (priority 2010, published 2013).
Where a name gives a salt, the structure may show the parent alone. Read-outs that look alike come from different tables or passages of the source.

Key:
β2AR [1] = biological target: T1, β2AR (Homo sapiens, UniProt P07550); assay: [3H]-DHA saturation binding on β2AR reconstituted in HDL particles; design: recombinant β2AR truncated at Gly365 (β2AR-365); made in house; host or cells: Sf9 insect cells (membranes); details: read-out: [3H]-DHA saturation binding Kd ± S.E.
Description: (§1) The effect of Nb80 and Gs on the receptors affinity for agonists was compared in competition binding experiments. The β2AR and β2AR-[…] (both […]) purified as previously described (Rosenbaum et al. 2007; […] GTPγS was used at 10 μM. […] Bound ^3H-DHA was separated from unbound on a Brandel harvester by passing over a Whatman GF/B filter (presoaked in TBS with 0.3% polyethylenimine) and washed in cold TBS. Radioligand binding was measured in a Beckman LS6000 scintillation counter. Ligand binding affinity (Kd) of DHA was determined from saturation binding curves using GraphPad Prism software.

β2AR-T4L = biological target: T2, β2AR-T4L (Homo sapiens, UniProt P07550, DEL231-262, form not given); assay: [3H]-DHA saturation binding on β2AR-T4L reconstituted in HDL particles; details: read-out: [3H]-DHA saturation binding Kd ± S.E.
T2 construct: The β2AR and β2AR-T4L (both truncated at position 365) purified as previously described (Rosenbaum et al. 2007); fused on or other part: T4 lysozyme (in the cited construct residues 2-161, C54T/C97A) inserted in place of the third intracellular loop as a crystallisation aid
Description: as §1

β2AR [2] = biological target: T1, β2AR; assay: Competition radioligand binding on commercial insect cell membranes with full-length human β2AR, Nb80 versus irrelevant Nb
[3] = 500 nM Nb80 or irrelevant Nb, 2 nM 3H-DHA radioligand

| Compound | Potency shift (ratio of IC50 with irrelevant Nb to IC50 with Nb80) (β2AR [2]; [3]) | also measured |
| --- | --- | --- |
| CCCc1ccccc1OCC(O)CNC(C)C (stereo not shown) [[^3H]-DNA, [^3H]-dihydroalprenolol] | – | Kd (β2AR [1]): 0.55 ± 0.09 nM; Kd (β2AR-T4L): 0.42 ± 0.01 nM |
| CC(CCc1ccc(O)cc1)NCCc1ccc(O)c(O)c1 (stereo not shown) [dobutamine, dobutamine hydrochloride] | 2.3 | – |
| CC(Cc1ccc(O)cc1)NCC(O)c1cc(O)cc(O)c1 (stereo not shown) [fenoterol, fenoterol hydrobromide] | 3.7 | – |
| CCC(NC(C)C)C(O)c1ccc(O)c2[nH]c(=O)ccc12 (stereo not shown) [procaterol, procaterol hydrochloride] | 2.3 | – |
| CC(NCCc1ccc(O)cc1)C(O)c1ccc(O)cc1 (stereo not shown) [ritodrine, ritodrine hydrochloride] | 2.7 | – |
| metaproterenol hemisulfate salt | – | Potency shift (ratio of IC50 with irrelevant Nb to IC50 with Nb80) (β2AR [2]): 2.9 |
